Values quoted from earlier work as cited in patent US10196371B2, “Compounds for the treatment of HPV-induced carcinoma” (Åbo Akademi, priority 2014, dated 2019).

Columns and labels:
[1] = system: E6 and E7
[2] = system: HPV16 positive cervical cancer cells

Q: For C=C1C(=O)OC2/C=C(/C)CC/C=C(\C(=O)O)CC/C=C(\C)CCC12 (centres unmarked) [anisomelic acid], which “protein level expression of E6 and E7” value [1] is on record?
A: inhibits

Q: And the “efficiency in inducing apoptosis” value [2]?
A: good efficiency
